Results reported in ChEMBL document CHEMBL1909046, “DrugMatrix in vitro pharmacology data”.

Key:
Calcitonin receptor = molecular target: T1, Calcitonin receptor (Homo sapiens, UniProt P30988); type: cell membranes, Membrane; details: t47d; further: in other assays of this panel Not Active means under 50% inhibition at 10 µM
T1 sequence (P30988 whole entry): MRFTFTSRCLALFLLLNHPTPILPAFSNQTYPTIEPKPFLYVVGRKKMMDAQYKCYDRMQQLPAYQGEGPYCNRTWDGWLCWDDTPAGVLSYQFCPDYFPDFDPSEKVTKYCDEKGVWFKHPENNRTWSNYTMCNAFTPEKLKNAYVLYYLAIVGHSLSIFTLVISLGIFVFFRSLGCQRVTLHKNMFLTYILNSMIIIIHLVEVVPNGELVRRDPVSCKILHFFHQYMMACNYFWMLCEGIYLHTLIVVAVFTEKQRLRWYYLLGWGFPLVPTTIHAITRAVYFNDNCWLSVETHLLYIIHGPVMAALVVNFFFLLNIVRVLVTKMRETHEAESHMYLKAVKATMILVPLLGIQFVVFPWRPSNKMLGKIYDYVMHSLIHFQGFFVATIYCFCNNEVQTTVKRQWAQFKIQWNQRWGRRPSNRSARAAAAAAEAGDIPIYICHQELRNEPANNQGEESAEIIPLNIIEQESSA

[1] = molecular target: T2, C-X-C chemokine receptor type 1 (Homo sapiens, UniProt P25024); further: in other assays of this panel Not Active means under 50% inhibition at 10 µM
T2 sequence (P25024 whole entry): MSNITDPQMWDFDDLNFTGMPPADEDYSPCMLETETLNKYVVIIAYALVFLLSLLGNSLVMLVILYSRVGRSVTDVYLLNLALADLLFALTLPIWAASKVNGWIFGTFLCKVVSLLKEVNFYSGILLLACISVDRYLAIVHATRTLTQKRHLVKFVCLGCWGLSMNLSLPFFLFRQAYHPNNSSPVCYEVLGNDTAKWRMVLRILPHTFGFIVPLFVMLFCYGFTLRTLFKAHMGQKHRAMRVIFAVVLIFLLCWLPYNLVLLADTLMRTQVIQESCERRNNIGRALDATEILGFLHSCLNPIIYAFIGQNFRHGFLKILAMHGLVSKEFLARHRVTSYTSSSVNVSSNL

[2] = molecular target: Delta-type opioid receptor (Homo sapiens, UniProt P41143); type: cell membranes, HEK293, Membrane; details: hek293; further: in other assays of this panel Not Active means under 50% inhibition at 10 µM
Sequence of Delta-type opioid receptor (P41143 whole entry): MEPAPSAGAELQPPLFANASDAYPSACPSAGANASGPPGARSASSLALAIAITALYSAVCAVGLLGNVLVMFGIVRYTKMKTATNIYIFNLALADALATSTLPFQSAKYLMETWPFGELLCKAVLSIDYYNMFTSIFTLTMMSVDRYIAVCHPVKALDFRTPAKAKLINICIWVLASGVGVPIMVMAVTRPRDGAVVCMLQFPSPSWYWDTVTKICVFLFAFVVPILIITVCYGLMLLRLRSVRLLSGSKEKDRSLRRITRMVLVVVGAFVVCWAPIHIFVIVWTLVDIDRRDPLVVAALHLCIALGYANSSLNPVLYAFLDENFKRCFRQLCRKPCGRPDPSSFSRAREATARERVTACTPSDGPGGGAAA

Vasopressin V1a receptor = Vasopressin V1a receptor (Homo sapiens, UniProt P37288); type: cell membranes, Membrane; details: hek293; further: in other assays of this panel Not Active means under 50% inhibition at 10 µM
Sequence of Vasopressin V1a receptor (P37288 whole entry): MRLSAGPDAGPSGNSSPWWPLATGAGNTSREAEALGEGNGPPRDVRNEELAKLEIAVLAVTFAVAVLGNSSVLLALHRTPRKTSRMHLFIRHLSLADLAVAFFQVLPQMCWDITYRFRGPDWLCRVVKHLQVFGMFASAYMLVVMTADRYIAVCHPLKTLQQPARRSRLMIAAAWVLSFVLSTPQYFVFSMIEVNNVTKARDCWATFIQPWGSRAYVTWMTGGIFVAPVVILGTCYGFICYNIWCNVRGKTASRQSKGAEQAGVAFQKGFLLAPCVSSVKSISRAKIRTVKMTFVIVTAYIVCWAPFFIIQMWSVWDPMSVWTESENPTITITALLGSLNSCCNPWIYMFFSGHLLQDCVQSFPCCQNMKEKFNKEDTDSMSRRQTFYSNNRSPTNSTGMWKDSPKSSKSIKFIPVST

[3] = DRUGMATRIX: Calcium Channel Type L, Dihydropyridine radioligand binding (ligand: [3H] Nitrendipine); type: cell membranes, Rattus norvegicus, Wistar, Cerebral cortex, Membrane; details: Not Active = under 50% inhibition at 10 µM
Substance-P receptor = Substance-P receptor (Homo sapiens, UniProt P25103); type: cell membranes, CHO, Membrane; details: cho; further: in other assays of this panel Not Active means under 50% inhibition at 10 µM
Sequence of Substance-P receptor (P25103 whole entry): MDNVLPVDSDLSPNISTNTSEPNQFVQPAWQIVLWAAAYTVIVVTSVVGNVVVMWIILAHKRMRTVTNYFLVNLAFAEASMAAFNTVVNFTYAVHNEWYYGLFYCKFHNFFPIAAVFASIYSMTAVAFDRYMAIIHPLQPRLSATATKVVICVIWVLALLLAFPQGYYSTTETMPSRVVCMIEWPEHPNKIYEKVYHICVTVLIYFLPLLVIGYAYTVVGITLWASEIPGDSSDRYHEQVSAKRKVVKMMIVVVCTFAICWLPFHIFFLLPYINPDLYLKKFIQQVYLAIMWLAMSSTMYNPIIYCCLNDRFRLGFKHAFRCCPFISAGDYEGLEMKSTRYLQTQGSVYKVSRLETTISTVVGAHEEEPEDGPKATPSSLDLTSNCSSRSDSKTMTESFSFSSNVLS

[4] = molecular target: C-C chemokine receptor type 2 (Homo sapiens, UniProt P41597); type: cell membranes, CHO-K1, Membrane; details: cho-k1; further: in other assays of this panel Not Active means under 50% inhibition at 10 µM
Sequence of C-C chemokine receptor type 2 (P41597 whole entry): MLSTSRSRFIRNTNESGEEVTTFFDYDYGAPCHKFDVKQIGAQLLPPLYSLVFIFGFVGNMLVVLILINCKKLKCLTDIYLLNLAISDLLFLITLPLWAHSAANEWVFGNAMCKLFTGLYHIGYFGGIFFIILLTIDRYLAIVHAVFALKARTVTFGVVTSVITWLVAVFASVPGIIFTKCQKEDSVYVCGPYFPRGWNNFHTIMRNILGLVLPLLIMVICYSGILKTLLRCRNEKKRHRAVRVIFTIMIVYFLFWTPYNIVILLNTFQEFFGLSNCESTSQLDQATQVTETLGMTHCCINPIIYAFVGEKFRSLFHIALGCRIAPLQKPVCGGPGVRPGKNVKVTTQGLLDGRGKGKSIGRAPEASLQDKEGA

[5] = DRUGMATRIX: Tumor Necrosis Factor (TNF), Non-Selective radioligand binding (ligand: [125I] TNF-alpha); type: cell membranes, Membrane; details: u-937; Not Active = under 50% inhibition at 10 µM
[6] = molecular target: T3, Amine oxidase [flavin-containing] A (Homo sapiens, UniProt P21397); assay: DRUGMATRIX: Monoamine Oxidase MAO-A enzyme inhibition (substrate: Kynuramine); parameters: species or system BTI-TN-5B1-4; details: bti-tn-5b1-4; Not Active = under 50% inhibition at 10 µM
T3 sequence (P21397 whole entry): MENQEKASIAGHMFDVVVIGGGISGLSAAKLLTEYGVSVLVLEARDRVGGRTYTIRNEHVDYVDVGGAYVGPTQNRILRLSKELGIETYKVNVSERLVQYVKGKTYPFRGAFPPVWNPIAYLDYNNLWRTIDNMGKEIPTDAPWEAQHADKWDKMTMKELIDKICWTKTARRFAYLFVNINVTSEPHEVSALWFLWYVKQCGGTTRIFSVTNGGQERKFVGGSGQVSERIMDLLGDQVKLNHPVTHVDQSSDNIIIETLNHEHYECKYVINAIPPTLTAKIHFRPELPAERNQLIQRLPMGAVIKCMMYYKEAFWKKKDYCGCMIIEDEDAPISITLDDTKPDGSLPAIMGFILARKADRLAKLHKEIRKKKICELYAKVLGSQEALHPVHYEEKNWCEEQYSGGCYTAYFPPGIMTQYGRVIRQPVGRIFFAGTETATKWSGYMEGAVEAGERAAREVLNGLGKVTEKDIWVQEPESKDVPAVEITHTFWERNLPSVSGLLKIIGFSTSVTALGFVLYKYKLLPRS

COc1ccc(C[C@H]2NC[C@H](O)[C@H]2OC(C)=O)cc1 [ANISOMYCIN]
Not Active: IC50 (Calcitonin receptor) | Ki (Calcitonin receptor) | IC50 [1] | Ki [1] | IC50 [2] | Ki [2] | IC50 (Vasopressin V1a receptor) | Ki (Vasopressin V1a receptor) | IC50 [3] | Ki [3] | IC50 (Substance-P receptor) | Ki (Substance-P receptor) | IC50 [4] | Ki [4] | IC50 [5] | Ki [5] | IC50 [6] | Ki [6]

C[C@]12CCC(=O)C=C1CC[C@@H]1[C@@H]2CC[C@@]2(C)[C@H]1CC[C@]2(C)O [METHYLTESTOSTERONE]
Not Active: IC50 (Calcitonin receptor) | IC50 [1] | IC50 [2] | IC50 (Vasopressin V1a receptor) | IC50 [3] | Ki [3] | IC50 (Substance-P receptor) | IC50 [4] | IC50 [5] | Ki [5] | IC50 [6]

O=C1CC[C@@H](N2C(=O)c3ccccc3C2=O)C(=O)N1
Not Active: IC50 (Calcitonin receptor) | IC50 [1] | IC50 [2] | IC50 (Vasopressin V1a receptor) | IC50 [3] | Ki [3] | IC50 (Substance-P receptor) | IC50 [4] | IC50 [5] | Ki [5] | IC50 [6]

Cc1c(O)c(=O)ccn1C [DEFERIPRONE]
Not Active: IC50 (Calcitonin receptor) | IC50 [1] | IC50 [2] | IC50 (Vasopressin V1a receptor) | IC50 [3] | Ki [3] | IC50 (Substance-P receptor) | IC50 [4] | IC50 [5] | Ki [5] | IC50 [6]

CCOc1ccc(NC(C)=O)cc1 [PHENACETIN]
Not Active: IC50 (Calcitonin receptor) | IC50 [1] | IC50 [2] | IC50 (Vasopressin V1a receptor) | IC50 [3] | Ki [3] | IC50 (Substance-P receptor) | IC50 [4] | IC50 [5] | Ki [5] | IC50 [6]

C[C@]12CC[C@@H]3c4ccc(O)cc4CC[C@H]3[C@@H]1CCC2=O [ESTRONE]
Not Active: IC50 (Calcitonin receptor) | IC50 [1] | IC50 [2] | IC50 (Vasopressin V1a receptor) | IC50 [3] | Ki [3] | IC50 (Substance-P receptor) | IC50 [4] | IC50 [5] | Ki [5] | IC50 [6]

NC1=NC(=O)C(c2ccccc2)O1 (stereo unspecified) [PEMOLINE]
Not Active: IC50 (Calcitonin receptor) | IC50 [1] | IC50 [2] | IC50 (Vasopressin V1a receptor) | IC50 [3] | Ki [3] | IC50 (Substance-P receptor) | IC50 [4] | IC50 [5] | Ki [5] | IC50 [6]

CN(C)c1nc(N(C)C)nc(N(C)C)n1 [ALTRETAMINE]
Not Active: IC50 (Calcitonin receptor) | IC50 [1] | IC50 [2] | IC50 (Vasopressin V1a receptor) | IC50 [3] | Ki [3] | IC50 (Substance-P receptor) | IC50 [4] | IC50 [5] | Ki [5] | IC50 [6]

CCn1cc(C(=O)O)c(=O)c2cc(F)c(N3CCNCC3)cc21 [NORFLOXACIN]
Not Active: IC50 (Calcitonin receptor) | IC50 [1] | IC50 [2] | IC50 (Vasopressin V1a receptor) | IC50 [3] | Ki [3] | IC50 (Substance-P receptor) | IC50 [4] | IC50 [5] | Ki [5] | IC50 [6]

CCCN1C[C@H](CSC)C[C@@H]2c3cccc4[nH]cc(c34)C[C@H]21 [PERGOLIDE]
Not Active: IC50 (Calcitonin receptor) | IC50 [1] | IC50 [2] | IC50 (Vasopressin V1a receptor) | IC50 [3] | Ki [3] | IC50 (Substance-P receptor) | IC50 [4] | IC50 [5] | Ki [5] | IC50 [6]

Clc1cccc(Cl)c1NC1=NCCN1 [CLONIDINE]
Not Active: IC50 (Calcitonin receptor) | IC50 [1] | IC50 [2] | IC50 (Vasopressin V1a receptor) | IC50 [3] | Ki [3] | IC50 (Substance-P receptor) | IC50 [4] | IC50 [5] | Ki [5] | IC50 [6]

C=C(C)C1(O)OC(=O)C=C1OC (stereo unspecified) [PENICILLIC ACID]
Not Active: IC50 (Calcitonin receptor) | IC50 [1] | IC50 [2] | IC50 (Vasopressin V1a receptor) | IC50 [3] | Ki [3] | IC50 (Substance-P receptor) | IC50 [4] | IC50 [5] | Ki [5] | IC50 [6]

C[C@H](CS)C(=O)N1CCC[C@H]1C(=O)O [CAPTOPRIL]
Not Active: IC50 (Calcitonin receptor) | IC50 [1] | IC50 [2] | IC50 (Vasopressin V1a receptor) | IC50 [3] | Ki [3] | IC50 (Substance-P receptor) | IC50 [4] | IC50 [5] | Ki [5] | IC50 [6]

C[C@H]1O[C@@H](O[C@H]2[C@@H](O)C[C@H](O[C@H]3[C@@H](O)C[C@H](O[C@H]4CC[C@@]5(C)[C@H](CC[C@@H]6[C@@H]5C[C@@H](O)[C@]5(C)[C@@H](C7=CC(=O)OC7)CC[C@]65O)C4)O[C@@H]3C)O[C@@H]2C)C[C@H](O)[C@@H]1O [DIGOXIN]
Not Active: IC50 (Calcitonin receptor) | IC50 [1] | IC50 [2] | IC50 (Vasopressin V1a receptor) | IC50 [3] | Ki [3] | IC50 (Substance-P receptor) | IC50 [4] | IC50 [5] | Ki [5] | IC50 [6]
